Source: ChEMBL document CHEMBL3352528, “Ejection of structural zinc leads to inhibition of γ-butyrobetaine hydroxylase” (Bioorg Med Chem Lett, 2014)
Activity calls are given as the source filed them. No cut-off for these calls is given here.

How the values were obtained:
[1] = biological target: T1, Gamma-butyrobetaine dioxygenase (Homo sapiens, UniProt O75936); experiment: Inhibition of human BBOX pre-incubated for 1 min using TBS-protected fluorescein probe and Fe (II) (Fe(NH4)2(SO4)2 salt by fluoride release assay
T1 sequence (O75936 whole entry): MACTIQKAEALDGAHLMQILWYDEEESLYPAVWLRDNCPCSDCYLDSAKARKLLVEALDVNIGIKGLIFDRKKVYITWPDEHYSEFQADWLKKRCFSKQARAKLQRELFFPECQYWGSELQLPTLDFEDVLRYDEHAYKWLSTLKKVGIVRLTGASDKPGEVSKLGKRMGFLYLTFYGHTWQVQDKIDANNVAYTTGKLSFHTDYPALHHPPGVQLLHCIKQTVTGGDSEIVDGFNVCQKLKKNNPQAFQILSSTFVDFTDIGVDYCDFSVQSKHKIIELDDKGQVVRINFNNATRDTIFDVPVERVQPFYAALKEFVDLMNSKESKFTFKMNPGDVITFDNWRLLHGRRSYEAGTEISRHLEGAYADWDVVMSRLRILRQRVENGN

[2] = biological target: T1, Gamma-butyrobetaine dioxygenase; experiment: Inhibition of human BBOX pre-incubated for 10 mins using TBS-protected fluorescein probe and Fe (II) (Fe(NH4)2(SO4)2 salt by fluoride release assay
[3] = biological target: T1, Gamma-butyrobetaine dioxygenase; experiment: Inhibition of human BBOX pre-incubated for 15 mins using TBS-protected fluorescein probe and Fe (II) (Fe(NH4)2(SO4)2 salt by fluoride release assay
[4] = biological target: T1, Gamma-butyrobetaine dioxygenase; experiment: Inhibition of human BBOX pre-incubated for 20 mins using TBS-protected fluorescein probe and Fe (II) (Fe(NH4)2(SO4)2 salt by fluoride release assay
[5] = biological target: T1, Gamma-butyrobetaine dioxygenase; experiment: Inhibition of human BBOX pre-incubated for 25 mins using TBS-protected fluorescein probe and Fe (II) (Fe(NH4)2(SO4)2 salt by fluoride release assay
[6] = biological target: T2, Gamma-butyrobetaine dioxygenase (Homo sapiens) (UniProt O75936); experiment: Binding affinity to human BBOX assessed as quenching of intrinsic tryptophan fluorescence at 50 to 200 uM in absence of Fe(II)
T2 sequence (whole entry): T1 sequence (O75936 whole entry)

[7] = biological target: T1, Gamma-butyrobetaine dioxygenase; experiment: Binding affinity to human BBOX by tryptophan fluorescence quenching binding assay
[8] = biological target: T1, Gamma-butyrobetaine dioxygenase; experiment: Binding affinity to human BBOX in presence of Fe(II) by tryptophan fluorescence quenching binding assay
[9] = biological target: T2, Gamma-butyrobetaine dioxygenase (Homo sapiens); experiment: Induction of Zn(II) from human BBOX assessed as zinc release by fluorescence based assay

Row | Structure (SMILES) | IC50 [1] [µM] | IC50 [2] [µM] | IC50 [3] [µM] | IC50 [4] [µM] | IC50 [5] [µM] | Activity [6] | Kd [7] [µM] | Kd [8] [µM] | Activity [9]
1 | Br[Se]c1ccccc1 | 7.1 | 3.4 | 3.4 | 3 | 2.3 | Active | 13 | 11 | 
2 | c1ccc([Se][Se]c2ccccc2)cc1 | 55 | 47 | 49 | 42 | 39 | Active | > 200 | > 200 | 
3 | Cl[Se]c1ccccc1 | 5.1 | 4 | 3.2 | 2.9 | 2.2 | Active | 9.4 | 7.5 | 
4 | O=c1c2ccccc2[se]n1-c1ccccc1 [EBSELEN] | 0.69 | 0.71 | 0.76 | 0.83 | 0.72 | Active | 3.6 | 4.6 | 
5 | O=[Se](O)c1ccccc1 | 35 | 11 | 6.3 | 4.7 | 2.6 | Active | 7.6 | 12 | 
6 | O=C(O)CNC(=O)c1nc(Cl)c2ccccc2c1O | 36 | 33 |  | 32 |  | inactive | 122 | 13 | inactive
7 | CN(C)C(=S)SSC(=S)N(C)C [THIRAM] | 56 | 34 | 14 | 7.9 | 5.8 | Active | 59 | 35 | 
8 | O[Se]c1ccccc1 | 54 | 35 | 26 | 19 | 17 | Active | > 200 | > 200 | 
